Reference: patent US6500817B1, “Thiazolyl urea derivatives and their utilization as antiviral agents” (Bayer Aktiengesellschaft, priority 1999, dated 2002)

Assays:
[1] = tested on: HSV-1 F; assay: anti-HSV screening test (cytopathogenic effect, fluorescein diacetate fluorescence readout) in Vero cells; format: cell-based; conditions: Human alphaherpesvirus 1, Vero, read-out: IC50 HSV-1 F/Vero
Procedure: (§1) HSV (HSV-1 Walki, HSV-1F or HSV-2G) was replicated on Vero cells (ATCC CCL-81) under the following conditions: the cells were grown in M199 medium (5% fetal calf serum, 2 mM glutamine, 100 IU/ml penicillin, 100 μg/ml streptomycin) in cell culture bottles at 37° C. and 5% CO2. The cells were split 1:4 on each of two occasions each week. For the infection, the medium was removed, and the cells were washed with Hank's solution, detached with 0.05% trypsin, 0.02% EDTA (Seromed L2143) and incubated at a density of 4×10^5 cells per ml under the conditions mentioned above for 24 hours. The medium was then removed, and the virus solution was added at an m.o.i. of <0.05 in a volume of 2 ml per 175 cm^2 of surface area. After incubation under the conditions mentioned for one hour, the medium was made up to a volume of 50 ml per 175 cm^2 bottle. […] The virus was released by freezing (−80° C.) and thawing (37° C.) twice. The cell debris was removed by centrifugation (300 g, 10 min, 4° C.) and the supernatant was frozen in aliquots at −80° C.
(§2) The anti-HSV effect was determined in a screening test system in 96-well microtitre plates with the assistance of various cell lines of neuronal, lymphoid and epithelial origin, such as, for example, Vero (African green monkey kidney cell line), MEF (murine embryonic fibroblasts), HELF (human embryonic fibroblasts), NT2 (human neuronal cell line) or Jurkat (human lymphoid T-cell line).
(§3) The substances dissolved (50 mM) in DMSO (dimethyl sulphoxide) are investigated on microtitre plates (for example 96-well MTP) in final concentrations of 250-0.5 μM (micromolar) in duplicate determinations (4 substances/plate). For potent substances, the dilutions are continued over several plates as far as 0.5 pM (picomolar). Toxic and cytostatic effects of the substance are also recorded. After the appropriate dilutions of the substance (1:2) on the microtitre plate, a suspension of cells (1×10^4 cells per well) such as, for example, Vero cells in M199 (medium 199) with 5% fetal calf serum, 2 mM glutamine and optionally 100 IU/ml penicillin and 100 μg/ml streptomycin or MEF cells in EMEM (Eagle's minimum essential medium) with 10% fetal calf serum, 2 mM glutamine and optionally 100 IU/ml penicillin and 100 μg/ml streptomycin, or HELF cells in EMEM with 10% fetal calf serum, 2 mM glutamine and optionally 100 IU/ml penicillin and 100 μg/ml streptomycin, or NT2 and Jurkat cells in DMEM ([…] glucose plus pyridoxine) with 10% fetal calf serum, 2 mM glutamine, 1 mM sodium pyruvate, nonessential amino acids and optionally 100 IU/ml penicillin and 100 μg/ml streptomycin is put in each well, and the cells in the relevant wells are infected with an appropriate amount of virus (HSV-1 F or HSV-2 G with an m.o.i (multiplicity of infection) of 0.0025 for HELF, Vero and MEF cells and with an m.o.i of 0.1 for NT2 and Jurkat cells). The plates are then incubated at 37° C. in a CO2 incubator (5% CO2) for several days. […] The plates are initially evaluated optically using a microscope and then analysed with a fluorescent dye. For this purpose, the cell culture supernatant is aspirated out of all the wells of the MTP and charged with 200 μl of PBS washing solution.

[2] = tested on: HSV-2 G; assay: as above; format: cell-based; conditions: Human alphaherpesvirus 2, Vero, read-out: IC50 HSV-2 G/Vero
Procedure: as §1, §2, §3

[3] = tested on: HSV; assay: in vivo effect: survival of intranasally HSV-infected mice; set-up: species or system strain BALB/cABom; conditions: Mus musculus; female BALB/cABom mice, intranasal infection 5×10^4 pfu; treatment from 6 hours after infection, 3 times a day for 5 days; from graphs of survival; read-out: ED50 (50% of the animals survive at this dose)
Procedure: 6-week old female mice, strain BALB/cABom, were purchased from a commerical breeder (Bomholtgard Breeding and Research Centre Ltd.).
The animals were anaesthetized with diethyl ether (Merck) in a sealed glass vessel. 50 μl of a dilution of the virus stock (infectious dose 5×10^4 pfu) were introduced into the nose of the anaesthetized animals with an Eppendorf pipette. This infectious dose leads to death of 90-100% of the animals after an average of between 5 and 8 days due to a generalized infection with prominent respiratory and central nervous symptoms.
6 hours after the infection, the animals were treated with doses of 0.1-100 mg/kg of body weight 3 times a day at 7.00 h, 14.00 h and 19 h over a period of 5 days. The substances were dissolved in DMSO and resuspended in Tylose/PBS (Hoechst) (final concentration 1.5% DMSO, 0.5% Tylose in PBS).
After the last administration, the animals were observed further and the times of death were recorded.

CNS(=O)(=O)c1sc(N(C)C(=O)Nc2ccc(N3CCOCC3)cc2)nc1C [Example 43]
IC50 [1]: 500 nM | IC50 [2]: 1500 nM | ED50 [3]: 30 to 40 mg/kg
